Structures can show the parent of a compound that is named as a salt. Each block holds one compound with its values, some of them ahead of it.
Columns and labels:
[1] = biological target: human somatostatin receptor protein subtype 4 (hSSTR4); test: Binding inhibition of 125I-somatostatin-14, IC50, SSTR4 membrane fraction; conditions: 125I-somatostatin-14, human SSTR4 CHO cell membrane fraction, 25° C., 60 minutes
[2] = biological target: T1, rat somatostatin receptor protein subtype 4 (rSSTR4) (Rattus norvegicus, UniProt P30937); test: Binding inhibition of 125I-somatostatin-14, IC50, rat SSTR4 membrane fraction; conditions: 125I-somatostatin-14, rat SSTR4 CHO cell membrane fraction, 25° C., 60 minutes
T1 construct: expressed in transfected cells; host or cells: CHO (dhfr-) cells, strain rSSTR4-20-25
T1 sequence (P30937 whole entry): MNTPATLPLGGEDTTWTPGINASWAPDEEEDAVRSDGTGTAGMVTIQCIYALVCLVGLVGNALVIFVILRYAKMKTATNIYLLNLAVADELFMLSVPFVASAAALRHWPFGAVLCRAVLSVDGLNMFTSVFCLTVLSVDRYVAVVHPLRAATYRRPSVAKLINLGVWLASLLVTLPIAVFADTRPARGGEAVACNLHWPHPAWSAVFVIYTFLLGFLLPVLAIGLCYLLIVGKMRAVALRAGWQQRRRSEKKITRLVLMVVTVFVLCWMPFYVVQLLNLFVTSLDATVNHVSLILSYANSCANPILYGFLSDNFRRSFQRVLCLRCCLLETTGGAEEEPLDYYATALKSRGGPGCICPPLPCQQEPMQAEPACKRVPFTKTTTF

rat astrocyte = test: Inhibitory effect on forskolin-stimulated accumulation of cAMP in rat astrocyte; assay type: cell-based
Procedure: Inhibitory effect on forskolin-stimulated accumulation of cAMP in rat astrocyte
For measurement of the accumulated intracellular adenosine 3',5'-monophosphate (cAMP), newborn rat astrocytes prepared in accordance with the method of Mc carthy, K. D. et al. [Cell Biology, 85, 890-920, 1980] were proliferated in 24-well plate until they were confluent. Said cells were washed twice with 1 ml of Medium A [Dulbecco's Modified Eagle Medium (DMEM), 20 mM 2-[4-(2-hydroxyethyl)-1-piperazinyl]ethanesulfonic acid (HEPES) (pH 7.5), 0.2% bovine serum albumin and 0.2 mM 3-isobutyl-1-methylxanthine (IBMX)]. The medium A was placed in wells each in a quantity of 400 μl and incubated at 37° C. for an hour. […] The cells were washed twice with 1 ml of Medium A. 500 μl of Medium A and 100 μl of a 20% aqueous perchloric acid solution were placed in each well and left standing for20 minutes at 4° C. to lyse the cells. The lyzate was placed in an Eppendorf's tube and centrifuged (15.000 rpm, 10 minutes). The supernatant was placed in another Eppendorf's tube in quantity of 500 μl and neutralized with 60 mM of a HEPES aqueous solution containing 1.5 M of potassium chloride. The content of cAMP in this extract was determined by the Amersham kit (cAMP EIA system).

[3] = biological target: T2, human somatostatin receptor protein subtype 2 (SSTR2) (Homo sapiens, UniProt P30874); test: Binding inhibition of 125I-somatostatin-14, IC50, SSTR2 membrane fraction; conditions: 125I-somatostatin-14, CHO cell membrane fraction, 25° C., 60 minutes
T2 construct: expressed in transfected cells; host or cells: CHO (dhfr-) cells, strain SSTR2-HS5-9
T2 sequence (P30874 whole entry): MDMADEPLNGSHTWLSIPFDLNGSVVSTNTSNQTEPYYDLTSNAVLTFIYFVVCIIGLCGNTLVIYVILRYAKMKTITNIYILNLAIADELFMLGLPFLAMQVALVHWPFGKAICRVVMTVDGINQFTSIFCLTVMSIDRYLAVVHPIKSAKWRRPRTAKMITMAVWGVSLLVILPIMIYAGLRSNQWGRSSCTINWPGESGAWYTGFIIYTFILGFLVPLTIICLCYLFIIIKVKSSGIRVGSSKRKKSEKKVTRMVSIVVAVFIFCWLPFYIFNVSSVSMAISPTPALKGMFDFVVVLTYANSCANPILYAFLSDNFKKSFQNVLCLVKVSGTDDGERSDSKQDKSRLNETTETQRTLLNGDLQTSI

[4] = biological target: T3, human somatostatin receptor protein subtype 3 (SSTR3) (Homo sapiens, UniProt P32745); test: Binding inhibition of 125I-somatostatin-14, IC50, SSTR3 membrane fraction; conditions: 125I-somatostatin-14, CHO cell membrane fraction, 25° C., 60 minutes
T3 construct: expressed in transfected cells; host or cells: CHO (dhfr-) cells, strain SSTR3-15-19
T3 sequence (P32745 whole entry): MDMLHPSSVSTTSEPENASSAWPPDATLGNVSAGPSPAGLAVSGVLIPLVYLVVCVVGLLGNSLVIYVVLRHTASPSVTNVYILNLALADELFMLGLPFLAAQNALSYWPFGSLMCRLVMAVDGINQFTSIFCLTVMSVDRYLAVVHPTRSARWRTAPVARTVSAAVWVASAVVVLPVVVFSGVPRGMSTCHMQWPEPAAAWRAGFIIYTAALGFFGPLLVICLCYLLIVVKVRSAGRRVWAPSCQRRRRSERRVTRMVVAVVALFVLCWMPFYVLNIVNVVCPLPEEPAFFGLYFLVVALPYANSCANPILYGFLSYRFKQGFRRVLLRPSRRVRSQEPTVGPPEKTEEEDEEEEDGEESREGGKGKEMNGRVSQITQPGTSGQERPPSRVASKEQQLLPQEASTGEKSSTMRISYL

- IC50 [1]: 7 nM
- IC50 [2]: 10 nM
- agonistic effect on the rat somatostatin receptor (rat astrocyte; conclusion from cAMP test in rat astrocytes): has an agonistic effect
Compound: O=C(CCc1nc(-c2cc3ccccc3o2)no1)N1CC(CN2CCCC2)Cc2ccccc21 (stereo not drawn) [Example 56, 1-[3-(3-(2-Benzofuranyl)-1,2,4-oxadiazol-5-yl]propanoyl]-3-(pirrolidin-1-yl)methyl-1,2,3,4-tetrahydroquinoline oxalate]
- inhibition at 0.01 µM (rat astrocyte; Astrocyte, compound 10 nM, forskolin 10 μM, rat astrocytes, 37° C., an hour, read-out: inhibition of the intracellular accumulation of cAMP at the time of stimulation by forskolin): 43%

- IC50 [3]: 9 nM
- IC50 [4]: 0.8 nM
Compound: CN(C)CC1Cc2ccccc2N(C(=O)[C@@H](Cc2c[nH]c3ccccc23)NC(=O)N2CCN(c3ccccc3)CC2)C1 (stereo partly drawn) [Example 88, 3-(R,S)-(N,N-Dimethylamino)methyl-1-[3-(indol-3-yl)-2-[(R)-(4-phenylpiperazin-1-yl)]carbonylaminolpropanoyl]-1,2,3,4-tetrahydroquinoline]

Compound: Somatostatin-14: Somatostatin-14, the reference peptide in the rat astrocyte cAMP test [reference compound]
- inhibition of the intracellular accumulation of cAMP at the time of stimulation by forskolin (rat astrocyte; compound 10 nM, forskolin 10 μM, rat astrocytes, 37° C., an hour): 83%

- IC50 [3]: 3 nM
- IC50 [4]: 2 nM
Compound: CN(C)CC1Cc2ccccc2N(C(=O)[C@@H](Cc2c[nH]c3ccccc23)NC(=O)N2CCC(n3c(=O)[nH]c4ccccc43)CC2)C1 (stereo partly drawn) [Example 89, 3-(R,S)-(N,N-Dimethylamino)methyl-1-[3-(indol-3-yl)-2-[(R)-4-(2-oxo-2,3-dihydro-1H-benzimidazol-1-yl]piperidinocarbonylamino]propanoyl]-1,2,3,4-tetrahydroquinoline]
